In US20250170155A1, “NUCLEOSIDE DERIVATIVES AND PRODRUGS THEREOF HAVING VIRAL GROWTH INHIBITORY ACTION” (Shionogi & Co., Ltd., priority 2021, published 2025):

What was measured:
Assay type in all cases: cell-based
[1] = Cytotoxic activity evaluation, Vero E6/TMPRSS2 cells; settings: African green monkey, no virus
Procedure: (§1) <Operation Procedure (Cytotoxic Activity Evaluation)>
A 3- to 5-fold serial dilution series of test substances was prepared in DMSO, diluted with 2% FBS/MEM so that the concentration of DMSO was 2%, and dispensed into a 96 well plate (50 μL/well, DMSO final concentration 0.5%). • Dilution and dispensing of cells
The cells prepared to an appropriate number were seeded at 100 μL/well to the plate into which the test substance was dispensed. Thereafter, the cells were cultured in a CO2 incubator at 37° C. for 3 days. • Dispensing of CellTiter-Glo (registered trademark) 2.0 Reagent
Same as those described in the section for evaluation of antiviral activity • Measurement of luminescence intensity
(§2) Same as those described in the section for evaluation of antiviral activity
Excel, TIBCO Spotfire, or a program having equivalent calculation processing capability based on the following calculation formula.

[2] = test system: SARS-CoV-2 (hCoV-19/Japan/TY/WK-521/2020 strain); assay: CPE suppression effect confirmation test (SARS-CoV-2, Vero E6/TMPRSS2 cells), antiviral activity; settings: for EC50: Severe acute respiratory syndrome coronavirus 2, VeroE6/TMPRSS2, 72 h, read-out: SARS-CoV-2 EC50 (50% CPE inhibitory concentration), 3 days culture
[3] = test system: influenza virus (A/WSN/33 (H1N1) strain); assay: CPE suppression effect confirmation test (influenza virus, RPMI 2650 cells), antiviral activity; settings: for EC50: read-out: Influenza EC50 (50% CPE inhibitory concentration), A/WSN/33 (H1N1), 3 to 6 days
[4] = Cytotoxic activity evaluation, RPMI 2650 cells; settings: human, no virus, 3 to 6 days
Procedure: as §1
On the day before the compound treatment, cells prepared to an appropriate number were seeded in a 96 well plate at 100 μL/well. Thereafter, the cells were cultured in a CO2 incubator at 37° C. • Preparation of 2 μg/mL trypsin/0.5% BSA/MEM
Same as those described in the section for evaluation of antiviral activity • Dilution and dispensing of test substance
A 3- to 5-fold serial dilution series of test substances was prepared in DMSO in advance, and diluted with 2 μg/mL trypsin/0.5% BSA/MEM so that the final concentration of DMSO was 0.5% (100 to 200 μL/well). The cells were washed with MEM, and then cultured in a test substance-added medium for 3 to 6 days. Double measurement was performed for each drug. • Dispensing of resazurin solution
Same as those described in the section for evaluation of antiviral activity • Measurement of fluorescence intensity
as §2
[formula] [formula] • Calculation of Selectivity Index (SI)

[5] = test system: SARS-CoV-2 (hCoV-19/Japan/TY/WK 521/2020 strain); assay: microbe, parasite or virus in culture; settings: HEK293T/ACE2-TMPRSS2 cells; for EC50: Severe acute respiratory syndrome coronavirus 2, HEK-293T, 72 h, read-out: SARS-CoV-2 EC50 (50% CPE inhibitory concentration), 293T-AT, 3 days culture

Compound | CC50 at 3 days [1] [µM] | SARS-CoV-2 SI (Selectivity Index) [2] | EC50 [2] [µM] | Influenza SI (Selectivity Index) [3] | EC50 [3] [µM] | CC50 [4] [µM] | SARS-CoV-2 SI (Selectivity Index), 293T-AT [5] | EC50 [5] [µM]
N#C[C@@]1(c2cnc3c(N)ncnn23)O[C@H](CO)[C@@H](O)C1O (stereo partly drawn) [Compound I-042] | > 500 | >6.66 | 75.1 | – | – | – | – | –
Cl.Cn1cc(-c2cc([C@@H]3N[C@H](CO)[C@@H](O)[C@H]3O)n3ncnc(N)c23)nn1 [Compound I-040] | > 500 | >5.93 | 84.3 | – | – | – | – | –
Cc1nc(-c2cc([C@@H]3N[C@H](CO)[C@@H](O)[C@H]3O)n3ncnc(N)c23)c[nH]1.Cl [Compound I-047] | > 500 | >10.4 | 48.2 | – | – | – | – | –
Nc1ncnn2c([C@@H]3N[C@H](CO)[C@@H](O)[C@H]3F)ccc12 [Compound I-013] | – | – | – | >1.99 | 251 | > 500 | – | –
Nc1ncnn2c([C@@H]3N[C@H](CO)[C@@H](O)[C@H]3O)cc(-c3cncs3)c12 [Compound I-027] | – | – | – | >48.5 | 10.3 | > 500 | – | –
Cc1cnc(-c2cc([C@@H]3N[C@H](CO)[C@@H](O)[C@H]3O)n3ncnc(N)c23)s1 [Compound I-043] | – | – | – | >2.46 | 203 | > 500 | – | –
CN1[C@H](CO)[C@@H](O)[C@@H](O)[C@@H]1c1cc(C(N)=O)c2c(N)ncnn12.Cl [Compound I-076] | > 500 | >30.7 | 16.3 | – | – | – | – | –
N#C[C@@]1(c2ccn3c(N)ncnc23)O[C@H](CO)[C@@H](O)[C@H]1O [Compound I-046] | 485 | 15.6 | 31.1 | – | – | – | – | –
C#CCNC(=O)c1cc([C@@H]2N[C@H](CO)[C@@H](O)[C@H]2O)n2ncnc(N)c12 [Compound I-075] | > 500 | >185 | 2.7 | – | – | – | – | –
CCC1[C@@H](c2ccc3c(N)ncnn23)[C@H](O)[C@H](O)[C@H]1CO (stereo partly drawn) [Compound I-007] | – | – | – | 1.06 | 473 | > 500 | – | –
Nc1ncnc2c([C@@H]3N[C@H](CO)[C@@H](O)[C@H]3O)c[nH]c12 [Galidesivir, reference compound] | – | – | > 100 | – | – | – | <5.3 | > 20
Nc1ncnc2c([C@@H]3N[C@H](CO)[C@@H](O)[C@H]3O)cc(/C=N/O)n12 [Compound I-031] | – | – | – | >1.46 | 343 | > 500 | – | –
Cl.Nc1ncnn2c([C@@H]3N[C@H](CO)[C@@H](O)[C@H]3O)cc(-c3ccc(F)cn3)c12 [Compound I-051] | > 500 | >6.13 | 81.5 | – | – | – | – | –
O=c1[nH]cnn2c([C@@H]3N[C@H](CO)[C@@H](O)[C@H]3O)ccc12 [Compound I-019] | – | – | – | >7.62 | 65.6 | > 500 | – | –
N#CCc1cc([C@@H]2N[C@H](CO)[C@@H](O)[C@H]2O)n2ncnc(N)c12 [Compound I-028] | – | – | – | 20.6 | 4.95 | 102 | – | –
Nc1ncnn2c([C@@H]3N[C@H](CO)[C@@H](O)[C@H]3O)ccc12 [WO2014078778 Example5_30 g, reference compound] | – | <0.41 | > 4 | 73.7 | 0.471 | – | <1.34 | > 4
Cc1cc(-c2cc([C@@H]3N[C@H](CO)[C@@H](O)[C@H]3O)n3ncnc(N)c23)[nH]n1.Cl [Compound I-050] | > 500 | >11.0 | 45.4 | – | – | – | – | –
Cl.Nc1nc(F)nn2c([C@@H]3N[C@H](CO)[C@@H](O)[C@H]3O)cc(-c3cc[nH]n3)c12 [Compound I-052] | > 500 | >79.7 | 6.27 | – | – | – | – | –
Cl.Nc1ncnn2c([C@@H]3N[C@H](CO)[C@@H](O)[C@H]3O)cc(-c3n[nH]c4ccccc34)c12 [Compound I-049] | 397 | 5.7 | 69.6 | – | – | – | – | –
Nc1ncnn2c([C@@H]3N[C@H](CO)[C@@H](O)[C@H]3O)cc(/C=N\O)c12 [Compound I-026] | – | – | – | >518 | 0.965 | > 500 | – | –
